Patent publication US9388405B2, “Method for identifying a subpopulation of mammalian cells with distinctive ribosome translation profiles” (priority 2009, dated 2016)
Peptide text beside a SMILES is read from it. * marks the point of attachment. Cbz = O=C(OCc1ccccc1)*

Assays:
Type in all cases: cell-based, human
[1] = test system: HEK293 CMV-fLuc subclone #3; test: Updated 15-Assay / 21-Assay, cap-dependent translational responses
From the text: (§1) The dashed line represents the level of translational response in the untreated samples.
Following 6 hr exposure to the compounds, cells were lysed and fLuc protein activity measured using a standard microplate reader assay. The triplicate plate reader values were averaged and expressed as the ratio of treated to untreated samples (Fold Induction). The dashed line represents the level of translational response in the untreated samples.
(§2) The 21-Assay procedure employs the same standard toxins as the Updated 15-Assay protocol. The extra 6 assays involve an unknown or an uncharacterized compound and its pairwise combinations with the five toxins: Unknown, Unknown+TPA, Unknown+Colchcine, Unknown+Bortezomib (Velcade), Unknown+Low dose Calon, and Unknown+Hycamtin (Topotecan).
Application of single-Toxin and two-Toxin assays in the Updated 15-Assay protocol was used to define cap-dependent translational responses in the HEK293 CMV-fLuc #3 subclone (FIG. 30A).
The combinatorial process described in this example provides a system for testing translational regulation by unknown compounds. In this example, a 21-Assay setup is described that employs the single and pairwise combinatorial application of 5 toxins, as in a standard 15-Toxin assay, and the addition of a sixth substance. Inclusion of the sixth substance requires the expansion of the assay group to a total of 21 single- and two-Toxin assays. For this example, a control substance (taxol) was selected from the original 15-Assay system.

[2] = test system: HEK293 mTRdm-fLuc subclone #13 and HEK293 hTRdm-gLuc subclone #79; test: Updated 15-Assay / 21-Assay, TR translational responses (fLuc, gLuc)
Protocol: as §1
As before, secreted Gaussia Luciferase (gLUC) activity was measured in conditioned media 6 hr after drug application and protein activity expressed as the ratio of treated to untreated samples (Fold Induction). The dashed line represents the translational response in untreated cells.
The dashed line represents the translational response produced by untreated cell samples.
Following a 6 hr culture time, secreted gLuc activity was measured in conditioned media using a standard microplate reader assay and expressed as the ratio of treated to untreated samples (Fold Induction). The dashed line represents the level of translational response in the untreated samples. Given that the gLuc protein is secreted into the media, it escapes the cytoplasmic protein turnover processes acting on the fLUC protein. Therefore, any difference in the apparent TR response is a likely result of variation in reporter protein synthesis, secretion or reduced protein turnover.
as §2, with “(Topotecan). […]” for “(Topotecan).”

[3] = test system: MCF7 CMV-fLuc subclone #65; test: Topoisomerase 1 inhibitor single-Toxin and two-Toxin (100 nM TPA) dose response, cap-dependent; settings: 10 nM to 10 uM
Protocol: FIG. 28A illustrates a dose response assay of the MCF7 CMV-fLuc subclone #65 treated with varying doses (10 nM to 10 uM range) of the following Topoisomerase 1 inhibitors: camptothecin, topotecan, irinotecan, and rubitecan. Following a 6 hr incubation in a single-Toxin assay, cells were lysed and fLuc protein activity measured using a standard microplate reader assay. The plate reader values were averaged and expressed as the ratio of treated to untreated samples (Fold Induction). The dashed line represents the level of translational response in untreated cell samples.
FIG. 28B illustrates the use of a Combinatorial Assay to examine the effects of Topoisomerase 1 inhibitors on cap-dependent translation. A series of dose response assays were performed on the MCF7 CMV-fLuc subclone #65 using varying doses of the Topoisomerase 1 inhibitors (10 nM to 10 uM range) in a Two-Toxin assay with a constant 100 nM TPA dose. The plate reader values were averaged and expressed as the ratio of treated to untreated samples (Fold Induction). The dashed line represents the level of translational response in untreated samples.
FIG. 28A illustrates a cap-dependent dose response assay of MCF7 cells treated with varying dosages (10 nM to 10 uM range) of the following TopoI inhibitors: camptothecin, topotecan, irinotecan, and rubitecan. […] While the altered irinotecan response might have been predicted based on its metabolic requirements, the lack of topotecan action on cap-dependent translation in the single-Toxin assays was unexpected.
Since similar doses inhibited translation in the single-Toxin assays (FIG. 28A), this effect might have represented a direct effect on translation.

[4] = test system: MCF7 mTRdm-fLuc subclone #27; test: Topoisomerase 1 inhibitor single-Toxin and two-Toxin (100 nM TPA) dose response, cap-independent
Protocol: FIG. 28C illustrates the use of single-Toxin Assays to measure the effects of Topoisomerase 1 inhibitors on cap-independent translation in MCF7 cells. Triplicate samples of the MCF7 mTRdm-fLuc subclone #27 were treated with varying concentrations (10 nM to 10 uM range) of the Topoisomerase 1 inhibitors; camptothecin, rubitecan, irinotecan and topotecan. The plate reader values were averaged and expressed as the ratio of treated to untreated samples (Fold Induction). The dashed line represents the level of translational response in untreated controls.
FIG. 28D illustrates the use of a two-Toxin Combinatorial Assay on the MCF7 mTRdm-fLuc subclone #27 treated with 100 nM TPA plus varying doses (10 nM to 10 uM range) of the Topoisomerase 1 inhibitors. The plate reader values were averaged and expressed as the ratio of treated to untreated samples (Fold Induction). The dashed line represents the level of translational response in untreated samples. All four inhibitors acted synergistically with TPA to increase protein activity in the 10 nM two-Toxin assay.
FIG. 28D illustrates the use of a two-Toxin dose response assay using varying dosages of the TopoI inhibitors in combination with the 100 nM TPA translational activator. All four inhibitors acted synergistically with TPA at low doses to increase protein translation. At concentrations higher than 100 nM, camptothecin, rubitecan, and topotecan antagonized the TPA response and reduced the fLUC expression.

[5] = test system: Class III HCT116 mTRdm-fLUC 7-5 and 12-16 cell lines; test: Western blot of fLUC protein in 15-Assay cell extracts
Protocol: The remaining cell suspension was centrifuged as described above and the pellets stored at −70/−80° C. for subsequent protein extraction and Western blot analysis. For protein extraction, cells were thawed on ice and resuspended in equal volumes of the Suspension Buffer (100 mM NaCl, 10 mM TrisHCl [pH 7.6], 1 mM EDTA, 1 mg/mL aprotinin, 100 μg/mL PMSF) and the 2×SDS Buffer (100 mM TrisHCl (pH6.8), 4% SDS, 20% glycerol, 20 mM DTT, 10 mM EDTA, 2× Roche Protease Inhibitor Cocktail). The extracts were homogenized by vigorous mixing and boiling for 3 min. Additional homogenization (when needed) was achieved by passing samples through a syringe fitted with a 26 G needle. At this point, the extracts were either analyzed by SDS-PAGE gel or stored at −80° C.
To produce a near quantitative Western blot analysis, equal protein concentrations are loaded on Western blots. […] The fLUC protein was detected using an anti-fLUC primary antibody (Sigma; 1:1000 dilution). After incubation with a primary antibody and extensive washing with 1×PBS-T, proteins binding the primary antibody were detected by incubation with a horseradish peroxidase (HRP) conjugated anti-rabbit secondary antibody (Amersham; 1:10000 dilution). Following incubation with the secondary antibody and extensive washing, reactive proteins were detected with the ECL reagent system (Amersham) as described by the vendor. […]

[6] = test system: HEK293 hTRdm-fLuc #53 and HEK293 mTRdm-fLuc #12 subclones; test: Microtubule disruptor single-Toxin dose response, cap-independent; settings: cap-dependent and cap-independent assays
Protocol: The plate reader values were averaged and expressed as the ratio of treated to untreated samples (Fold Induction). Highly similar TR expression profile were produced by the human (hTRdm, top panel) and the mouse (mTRdm, bottom panel) TR cassettes. […] In contrast, significant increases in reporter activity were only observed at nocodazole concentrations greater than 250 nM. As in the cap-dependent assay, taxol-specific reporter increases were only observed at the 2.5 uM and 5 uM doses.
Highly similar cap-independent translational profiles were produced by each TR-expressing cell line (FIGS. 29B and C). […] This contrasted with the nocodazole responses, where significant increases were observed only at concentrations larger than 250 nM. As before, taxol-specific translational increases were only observed at the 2.5 uM and 5 uM doses.

[7] = test system: HCT116 mTRdm-fLUC cells; test: 5-Assay / 15-Assay toxin assays, fLUC plate reader (Fold Induction); settings: 5-Assay, 6 hr, HCT116 mTRdm-fLUC 12-16 subclone #38
Protocol: The 5-Assay and 15-Assay procedures were applied to cellular pools using either of two growth procedures (e.g. a Cell Count or Confluence growth assay). For a Cell Count assay, cells from the P1 pool dish were counted and passed into a white clear bottom 96-well microtiter tray at a density of 25,000 cells per well; the leftover cells were passed into a passage 2 (P2) dish. Cells in the microtiter plate were allowed to grow for about 40 hr to achieve a ˜75% cell confluence prior to incubation with a toxic agent. Then cells in a microtiter plate were treated with complete growth medium containing either no toxin or an optimal toxin, defined as a single or multiple toxin assay that produces a maximal translational response (taken from Table 3) and incubated for 6 hours at 37° C. Each treatment was performed on triplicate wells.
After toxin incubation, cells were examined by phase contrast microscopy for signs of detachment. If more than ˜10% of cells were detached, the 96-well plates were centrifuged at 1200 rpm for 3 min to pellet the detached cells. The media were removed and replaced with 50 μL of Cell Lysis Buffer (25 mM Tris-phosphate (pH7.8), 10% glycerol, 1% Triton X-100, 1 mg/ml BSA, 2 mM EGTA and 2 mM DTT). Cells were incubated with the Cell Lysis Buffer for 10 min at RT and cell lysis was verified using a phase contrast microscope. To ensure complete lysis, the lysates were vigorously agitated using the multichannel pipettor. Any air bubbles formed as a result of agitation were manually removed with a syringe needle. Luminescence was measured using the FLUOstar Optima (BMG Labtech) microplate reader. To develop luminescence, wells were injected with 5 μL of the D-luciferin solution dissolved in Reaction Buffer (25 mM Glycylglycine (pH 7.8), 15 mM MgSO4, 4 mM EDTA, 15 mM Potassium phosphate, 1 mM DTT, 1 mM Coenzyme A, 6.7 mM ATP and 3.35 mM D-luciferin). After 4 sec with shaking, luminescence values were measured using the lens filter at gains of 2500-4000.
Light values were converted to Fold Induction using the ratio of values produced by treated and untreated cells. The maximal TR-specific translational response produced by the 5-Toxin or 15-Toxin assay was used to assign an optimal toxin assay (maximal translational response) which was subsequently used to screen subclones derived from this pool and to assign a Class designation. […]
In one test, the 5-Assay procedure (Table 3) was applied to HCT116 mTRdm-fLUC 12-16 subclone #30 cells (FIG. 1A). […] Samples were then processed with Lysis buffer and read in a plate reader. […]
Triplicate samples of HCT116 mTRdm-fLUC 12-16 Sub#30 cells were cultured with the two-Toxin assays using a standard plate reader protocol (FIG. 1C). […]

Q: With CC[C@@]1(O)C(=O)OCc2c1cc1n(c2=O)Cc2cc3c(CN(C)C)c(O)ccc3nc2-1.Cl [topotecan, (S)-10-[(dimethylamino)methyl]-4-ethyl-4,9-dihydroxy-1H-pyrano[3′,4′:6,7]indolizino[1,2-b]quinoline-3,14(4H,12H)-dione monohydrochloride] as the molecule, how does the “effect on the TPA response” value ([1]; Updated 15-Assay two-Toxin with 100 nM TPA, cap-dependent) read?
A: TPA response was antagonized

Q: What about the “effect on translation” value ([2]; Updated 15-Assay, High Dose 10 uM, single- and two-Toxin) of the same molecule?
A: inhibitory effect of Topotecan (HD) was evident in all Single- and two-Toxin assays

Q: And the “effect on cap-dependent translation” value ([3]; single-Toxin)?
A: neither topotecan or irinotecan significantly altered cap-dependent translation

Q: What about the “effect on TPA-specific translational response” value ([3]; two-Toxin with constant 100 nM TPA, cap-dependent) of the same molecule?
A: showed only the TPA inhibitory effect at high doses (i.e. 5 uM and 10 uM)

Q: What about the “effect on cap-independent translation” value ([4]; single-Toxin, 10 nM to 10 uM) of the same molecule?
A: exhibited reduced fLUC activity at higher doses (5 uM and 10 uM)

Q: And the “effect on TPA activity” value ([4]; two-Toxin with 100 nM TPA, 10 nM to 10 uM)?
A: antagonized the TPA activity and exhibited reduced fLUC expression

Q: And the “fLUC expression at the highest dose” value ([4]; two-Toxin with 100 nM TPA, highest dose)?
A: basal level expression

Q: Which “fLUC protein levels by Western blot” value ([5]; HCT116 mTRdm-fLUC 7-5, 15-Assay) does the source give for CC(C)C[C@@H](C=O)NC(=O)[C@H](CC(C)C)NC(=O)[C@H](CC(C)C)NC(=O)OCc1ccccc1 [MG132, Z-Leu-Leu-Leu-aldehyde] (Cbz-Leu-Leu-Leu-aldehyde) here?
A: significant fLUC protein levels

Q: What about the “fLUC protein levels by Western blot” value ([5]; HCT116 mTRdm-fLUC 12-16, 15-Assay, 6 hrs) of the same molecule?
A: extremely high protein levels

Q: With CC(=O)O[C@H]1C(=O)[C@@]2(C)[C@H]([C@H](OC(=O)c3ccccc3)[C@]3(O)C[C@H](OC(=O)[C@H](O)[C@@H](NC(=O)c4ccccc4)c4ccccc4)C(C)=C1C3(C)C)[C@]1(OC(C)=O)CO[C@@H]1C[C@@H]2O [Taxol, Paclitaxel] as the molecule, how does the “effect on cap-dependent fLuc protein production” value ([1]; 21-Assay, single-Toxin (Unknown), 6 hr) read?
A: minimal effect on cap-dependent fluc protein production

Q: And the “effect on fLUC activity” value ([2]; 21-Assay, subclone #13, taxol as Unknown)?
A: small synergistic increases in fLUC activity in the single-Toxin and the colchicine+taxol, calcimycin+taxol, bortezomib+taxol two-Toxin assays, but not in the TPA+taxol or topotecan+taxol assays

Q: And the “response profile compared with other microtubule disruptor drugs” value [6]?
A: smallest response profile of all the microtubule disruptor drugs tested

Q: And the “TR-specific toxin response” value [7]?
A: Maximal TR-specific toxin responses
